Reference: patent US6737383B1, “Herbicidal oxadiazolidines” (priority 1999, dated 2004)

Key:
bedstraw = assay: Test B pre/postemergence bedstraw; type: in vivo, Galium aparine; conditions: Preemergence; for Plant response rating, Bedstraw: Rate 125 g/ha
Description: (§1) Seeds of bedstraw (Galium aparine), blackgrass (Alopecurus myosuroides), surinam grass (Brachiaria decumbens), cocklebur (Xanthium strumarium), corn (Zea mays), crabgrass (Digitaria sanguinalis), giant foxtail (Setaria faberii), morningglory (Ipomoea hederacea), pigweed (Amaranthus retroflexus), rape (Brassica napus), soybean (Glycine max), sugar beet (Beta vulgaris), velvetleaf (Abutilon theophrasti), wheat (Triticum aestivum), wild oat (Avena fatua) and purple nutsedge (Cyperus rotundus) tubers were planted and treated preemnergence with test chemicals formulated in a non-phytotoxic solvent mixture which included a surfactant.
(§2) At the same time, these crop and weed species were also treated with postemergence applications of test chemicals formulated in the same manner. Plants ranged in height from 2 to 18 cm (1- to 4-leaf stage) for postemergence treatments. Plant species in the flood test consisted of rice (Oryza sativa), smallflower flatsedge (Cyperus difformis), duck salad (Heteranthera limosa) and bamyardgrass (Echinochloa crus-galli) grown to the 2-leaf stage for testing. Treated plants and controls were maintained in a greenhouse for twelve to sixteen days, after which all species were compared to controls and visually evaluated. Plant response ratings, summarized in Table B, are based on a scale of 0 to 10 where 0 is no effect and 10 is complete control. A dash (−) response means no test result.

blackgrass = assay: Test B pre/postemergence blackgrass; type: in vivo, Alopecurus myosuroides; conditions: Preemergence; for Plant response rating, Blackgrass: Rate 125 g/ha
Description: as §1, §2

surinam grass = assay: Test B pre/postemergence surinam grass; type: in vivo, Brachiaria decumbens; conditions: Preemergence; for Plant response rating, B. signalgrass: Rate 125 g/ha
Description: as §1, §2

cocklebur = assay: Test B pre/postemergence cocklebur; type: in vivo, Xanthium strumarium; conditions: Preemergence; for Plant response rating, Cocklebur: Rate 125 g/ha
Description: as §1, §2

corn = assay: Test B pre/postemergence corn; type: in vivo, Zea mays; conditions: Preemergence; for Plant response rating, Corn: Rate 125 g/ha
Description: as §1, §2

crabgrass = assay: Test B pre/postemergence crabgrass; type: in vivo, Digitaria sanguinalis; conditions: Preemergence; for Plant response rating, Crabgrass: Rate 125 g/ha
Description: as §1, §2

giant foxtail = assay: Test B pre/postemergence giant foxtail; type: in vivo, Setaria faberii; conditions: Preemergence; for Plant response rating, Giant foxtail: Rate 125 g/ha
Description: as §1, §2

morningglory = assay: Test B pre/postemergence morningglory; type: in vivo, Ipomoea hederacea; conditions: Preemergence; for Plant response rating, Morningglory: Rate 125 g/ha
Description: as §1, §2

pigweed = assay: Test B pre/postemergence pigweed; type: in vivo, Amaranthus retroflexus; conditions: Preemergence; for Plant response rating, Redroot pigweed: Rate 125 g/ha
Description: as §1, §2

rape = assay: Test B pre/postemergence rape; type: in vivo, Brassica napus; conditions: Preemergence; for Plant response rating, Rape: Rate 125 g/ha
Description: as §1, §2

soybean = assay: Test B pre/postemergence soybean; type: in vivo, Glycine max; conditions: Preemergence; for Plant response rating, Soybean: Rate 125 g/ha
Description: as §1, §2

sugar beet = assay: Test B pre/postemergence sugar beet; type: in vivo, Beta vulgaris; conditions: Preemergence; for Plant response rating, Sugarbeets: Rate 125 g/ha
Description: as §1, §2

velvetleaf = assay: Test B pre/postemergence velvetleaf; type: in vivo, Abutilon theophrasti; conditions: Preemergence; for Plant response rating, Velvetleaf: Rate 125 g/ha
Description: as §1, §2

wheat = assay: Test B pre/postemergence wheat; type: in vivo, Triticum aestivum; conditions: Preemergence; for Plant response rating, Wheat: Rate 125 g/ha
Description: as §1, §2

wild oat = assay: Test B pre/postemergence wild oat; type: in vivo, Avena fatua; conditions: Preemergence; for Plant response rating, Wild oats: Rate 125 g/ha
Description: as §1, §2

purple nutsedge = assay: Test B pre/postemergence purple nutsedge; type: in vivo, Cyperus rotundus; conditions: Preemergence
Description: as §1, §2

[1] = Rate 31 g/ha, visual rating, scale 0 to 10 (0 no effect, 10 complete control)
[2] = Rate 62 g/ha, scale of 0 to 10 where 0 is no effect and 10 is complete control
[3] = scale of 0 to 10 where 0 is no effect and 10 is complete control
[4] = Rate 250 g/ha, scale 0 (no effect) to 10 (complete control)
[5] = Rate 500 g/ha, scale 0 to 10 (0 no effect, 10 complete control)

Which results are given for `CC(C)N(C(=O)n1oc(=O)n(Cc2nnc(-c3ccccc3)o2)c1=O)c1ccccc1` [Compound 716]?
Bedstraw plant response rating (bedstraw; [1]): 0; Bedstraw plant response rating (bedstraw; [2]): 0; Plant response rating, Bedstraw (bedstraw; [3]): 0; Bedstraw plant response rating (bedstraw; [4]): 0; Blackgrass plant response rating (blackgrass; [1]): 0; Blackgrass plant response rating (blackgrass; [2]): 0; Plant response rating, Blackgrass (blackgrass; [3]): 0; Blackgrass plant response rating (blackgrass; [4]): 0; B. signalgrass plant response rating (surinam grass; [1]): 0; B. signalgrass plant response rating (surinam grass; [2]): 0; Plant response rating, B. signalgrass (surinam grass; [3]): 0; B. signalgrass plant response rating (surinam grass; [4]): 0; Cocklebur plant response rating (cocklebur; [1]): 0; Cocklebur plant response rating (cocklebur; [2]): 0; Plant response rating, Cocklebur (cocklebur; [3]): 0; Cocklebur plant response rating (cocklebur; [4]): 0; Corn plant response rating (corn; [1]): 0; Corn plant response rating (corn; [2]): 0; Plant response rating, Corn (corn; [3]): 0; Corn plant response rating (corn; [4]): 0; Crabgrass plant response rating (crabgrass; [1]): 0; Crabgrass plant response rating (crabgrass; [2]): 0; Plant response rating, Crabgrass (crabgrass; [3]): 0; Crabgrass plant response rating (crabgrass; [4]): 0; Giant foxtail plant response rating (giant foxtail; [1]): 0; Giant foxtail plant response rating (giant foxtail; [2]): 0; Plant response rating, Giant foxtail (giant foxtail; [3]): 0; Giant foxtail plant response rating (giant foxtail; [4]): 0; Morningglory plant response rating (morningglory; [2]): 0; Plant response rating, Morningglory (morningglory; [3]): 0; Morningglory plant response rating (morningglory; [4]): 0; Redroot pigweed plant response rating (pigweed; [2]): 0; Plant response rating, Redroot pigweed (pigweed; [3]): 0; Redroot pigweed plant response rating (pigweed; [4]): 0; Rape plant response rating (rape; [2]): 0; Plant response rating, Rape (rape; [3]): 0; Rape plant response rating (rape; [4]): 0; Soybean plant response rating (soybean; [2]): 0; Plant response rating, Soybean (soybean; [3]): 0; Soybean plant response rating (soybean; [4]): 0; Sugarbeets plant response rating (sugar beet; [2]): 0; Plant response rating, Sugarbeets (sugar beet; [3]): 0; Sugarbeets plant response rating (sugar beet; [4]): 0; Velvetleaf plant response rating (velvetleaf; [2]): 0; Plant response rating, Velvetleaf (velvetleaf; [3]): 0; Velvetleaf plant response rating (velvetleaf; [4]): 0; Wheat plant response rating (wheat; [2]): 0; Plant response rating, Wheat (wheat; [3]): 0; Wheat plant response rating (wheat; [4]): 0; Wild oats plant response rating (wild oat; [2]): 0; Plant response rating, Wild oats (wild oat; [3]): 0; Wild oats plant response rating (wild oat; [4]): 0; Nutsedge plant response rating (purple nutsedge; [2]): 0; Plant response rating, Nutsedge (purple nutsedge; Rate 125 g/ha, scale of 0 to 10 where 0 is no effect and 10 is complete control): 0

Which “Plant response rating, Bedstraw” value (bedstraw; [3]) does the source give for `COCC(OC)n1c(=O)on(C(=O)N(c2ccc(F)cc2F)C(C)C)c1=O` (centres unmarked) [Compound 738] here?
The value was 0.

What about the “Bedstraw plant response rating” value (bedstraw; [4]) of the same compound?
The value was 0.

What about the “Bedstraw plant response rating” value (bedstraw; Rate 62 g/ha, scale 0 to 10) of the same compound?
Its value is 0.

What about the “Bedstraw plant response rating” value (bedstraw; [5]) of the same compound?
The value was 0.

What about the “Plant response rating, Blackgrass” value (blackgrass; [3]) of the same compound?
The value was 10.

What about the “Blackgrass plant response rating” value (blackgrass; [4]) of the same compound?
The value was 10.

And the “Blackgrass plant response rating” value (blackgrass; Rate 62 g/ha, scale 0 to 10)?
The value was 8.

What about the “Blackgrass plant response rating” value (blackgrass; [5]) of the same compound?
The value was 10.

And the “B. signalgrass plant response rating” value (surinam grass; [2])?
The value was 6.

What about the “Plant response rating, B. signalgrass” value (surinam grass; [3]) of the same compound?
The value was 9.

And the “B. signalgrass plant response rating” value (surinam grass; [4])?
The value was 10.

What about the “B. signalgrass plant response rating” value (surinam grass; [5]) of the same compound?
Its value is 10.

And the “Plant response rating, Cocklebur” value (cocklebur; [3])?
The value was 0.

What about the “Cocklebur plant response rating” value (cocklebur; [4]) of the same compound?
Its value is 0.

What about the “Cocklebur plant response rating” value (cocklebur; Rate 62 g/ha, scale 0 to 10) of the same compound?
Its value is 0.

What about the “Cocklebur plant response rating” value (cocklebur; [5]) of the same compound?
Its value is 0.

And the “Plant response rating, Corn” value (corn; [3])?
The value was 4.

What about the “Corn plant response rating” value (corn; [4]) of the same compound?
Its value is 7.

And the “Corn plant response rating” value (corn; Rate 62 g/ha, scale 0 to 10)?
The value was 0.

What about the “Corn plant response rating” value (corn; [5]) of the same compound?
Its value is 9.

What about the “Plant response rating, Crabgrass” value (crabgrass; [3]) of the same compound?
Its value is 9.

What about the “Crabgrass plant response rating” value (crabgrass; [4]) of the same compound?
The value was 9.

What about the “Crabgrass plant response rating” value (crabgrass; Rate 62 g/ha, scale 0 to 10) of the same compound?
Its value is 8.

And the “Crabgrass plant response rating” value (crabgrass; [5])?
Its value is 10.

And the “Plant response rating, Giant foxtail” value (giant foxtail; [3])?
The value was 9.

And the “Giant foxtail plant response rating” value (giant foxtail; [4])?
The value was 10.

And the “Giant foxtail plant response rating” value (giant foxtail; Rate 62 g/ha, scale 0 to 10)?
The value was 8.

What about the “Giant foxtail plant response rating” value (giant foxtail; [5]) of the same compound?
The value was 10.

What about the “Plant response rating, Morningglory” value (morningglory; [3]) of the same compound?
The value was 1.

And the “Morningglory plant response rating” value (morningglory; [4])?
Its value is 2.

What about the “Morningglory plant response rating” value (morningglory; Rate 62 g/ha, scale 0 to 10) of the same compound?
The value was 1.

And the “Morningglory plant response rating” value (morningglory; [5])?
The value was 4.

What about the “Plant response rating, Redroot pigweed” value (pigweed; [3]) of the same compound?
The value was 7.

And the “Redroot pigweed plant response rating” value (pigweed; [4])?
Its value is 8.

What about the “Redroot pigweed plant response rating” value (pigweed; Rate 62 g/ha, scale 0 to 10) of the same compound?
Its value is 6.

What about the “Redroot pigweed plant response rating” value (pigweed; [5]) of the same compound?
The value was 8.

And the “Plant response rating, Rape” value (rape; [3])?
Its value is 5.

What about the “Rape plant response rating” value (rape; [4]) of the same compound?
Its value is 6.

What about the “Rape plant response rating” value (rape; Rate 62 g/ha, scale 0 to 10) of the same compound?
The value was 2.

And the “Rape plant response rating” value (rape; [5])?
The value was 8.

And the “Plant response rating, Soybean” value (soybean; [3])?
Its value is 0.

And the “Soybean plant response rating” value (soybean; [4])?
Its value is 0.

What about the “Soybean plant response rating” value (soybean; Rate 62 g/ha, scale 0 to 10) of the same compound?
Its value is 0.

What about the “Soybean plant response rating” value (soybean; [5]) of the same compound?
The value was 0.

What about the “Plant response rating, Sugarbeets” value (sugar beet; [3]) of the same compound?
Its value is 6.

And the “Sugarbeets plant response rating” value (sugar beet; [4])?
Its value is 6.

And the “Sugarbeets plant response rating” value (sugar beet; Rate 62 g/ha, scale 0 to 10)?
The value was 3.

And the “Sugarbeets plant response rating” value (sugar beet; [5])?
The value was 8.

And the “Plant response rating, Velvetleaf” value (velvetleaf; [3])?
The value was 1.

What about the “Velvetleaf plant response rating” value (velvetleaf; [4]) of the same compound?
Its value is 6.

And the “Velvetleaf plant response rating” value (velvetleaf; Rate 62 g/ha, scale 0 to 10)?
Its value is 0.

What about the “Velvetleaf plant response rating” value (velvetleaf; [5]) of the same compound?
The value was 8.

What about the “Plant response rating, Wheat” value (wheat; [3]) of the same compound?
Its value is 4.

What about the “Wheat plant response rating” value (wheat; [4]) of the same compound?
Its value is 5.

What about the “Wheat plant response rating” value (wheat; Rate 62 g/ha, scale 0 to 10) of the same compound?
Its value is 2.

And the “Wheat plant response rating” value (wheat; [5])?
Its value is 8.

And the “Plant response rating, Wild oats” value (wild oat; [3])?
The value was 9.

What about the “Wild oats plant response rating” value (wild oat; [4]) of the same compound?
The value was 10.

And the “Wild oats plant response rating” value (wild oat; Rate 62 g/ha, scale 0 to 10)?
Its value is 4.

What about the “Wild oats plant response rating” value (wild oat; [5]) of the same compound?
The value was 10.

And the “Nutsedge plant response rating” value (purple nutsedge; [4])?
Its value is 4.

And the “Nutsedge plant response rating” value (purple nutsedge; [5])?
The value was 8.
